# “And” between values parts separate entries of the source, which are not always exact repeats. Equal entries are not always repeated.
# How the values were obtained:
# serum PON1 [1] = assay: Arylesterase activity in sera (phenyl acetate); assay type: biochemical; settings: 54 human sera
# Protocol: (§1) Phenyl acetate and paraoxonase activities were measured in 50 mM Tris pH 8.0 with 1 mM CaCl2. All activities were measured with 1 mM substrate, and expressed in Units/ml for phenyl acetate (1 μmol of phenyl acetate hydrolyzed per min per 1 ml undiluted serum) or mUnits/ml for other activities (1 nmol of substrate hydrolyzed per min per 1 ml undiluted serum). Horizontal bars represent the mean value for each group.
# (§2) Paraoxonase and aryl esterase activity in sera: Paraoxonase activity in sera samples was measured in activity buffer with 1 mM paraoxon by monitoring the absorbance at 405 nm in a final volume of 200 μl (ε=10,515 OD/M). Arylesterase activity was measured in activity buffer with 1 mM phenyl acetate by monitoring the absorbance at 270 nm in a final volume of 200 μL (ε=7000D/M).
# PON1 = settings: from Gaidukov et al. 2006; cited from earlier work
# serum PON1 [2] = assay: Lactonase activity in sera measured with TBBL; assay type: biochemical, human; settings: for TBBL lactonase activity: 0.25 mM TBBL, mean and S.D.
# Protocol: (§3) Lactonase Activity in Sera: Human sera were kindly provided by Michael Aviram. The samples were collected from 54 healthy individuals at Rambam Medical Center (Haifa, Israel) with the approval of the institute's Helsinki committee. Phenotyping sera for the PON1-192R/Q polymorphism was performed by a two-substrate method [Eckerson, H. W., et al., Am J Hum Genet. 35: 1126-1138] as previously described [Gaidukov, L., M. Rosenblat, M. Aviram, and D. S. Tawfik. 2006. J Lipid Res 47: 2492-2502]. Sera were divided into aliquots, supplemented with β-mercaptoethanol (5 mM) to prevent oxidation, and stored frozen at −20° C. All assays were performed in 96-well plates (Nunc), using an automated microplate reader (Bio-Tek; optical length ˜0.5 cm). Lactonase activity was measured in activity buffer (50 mM Tris pH 8.0, 1 mM CaCl2) containing 0.25 mM of 5-thiobutyl butyrolactone (TBBL) [Gaidukov, L., et al., 2006 J Lipid Res 47: 2492-2502] and 0.5 mM 5,5′-dithio-bis-2-nitrobenzoic acid (DTNB) by monitoring the absorbance at 412 nm in a final volume of 200 μl (ε=7,000 OD/M). The serum was diluted 400-fold in 100 μl of activity buffer complemented with 1 mM DTNB. DTNB was used from 100 mM stock in DMSO. TBBL was used from 250 mM stock in acetonitrile. TBBL was diluted 500-fold in activity buffer containing 2% acetonitrile. The reaction was initiated by adding 100 μl of TBBL (0.5 mM) to 100 μl of sera dilution. The final sera dilution was 800-fold. All the reaction mixtures contained a final 1% acetonitrile. Rates of spontaneous hydrolysis of TBBL in buffer were subtracted from all the measurements. Activities were expressed as U/ml (1 unit=1 μmol of TBBL hydrolyzed per minute per 1 ml of undiluted serum).
# serum PON1 [3] = target: T1, serum PON1 (Homo sapiens, UniProt P27169); assay: Lactonase activity in sera measured with TBBL; assay type: biochemical; settings: QQ sera (n = 34); 0.25 mM TBBL; mean and S.D.
# T1 construct: The samples were collected from 54 healthy individuals at Rambam Medical Center; from tissue; host or cells: human serum from 54 healthy individuals
# Protocol: as §3
# serum PON1 [4] = target: T2, serum PON1 (Homo sapiens, UniProt P27169, Q192R); assay: Lactonase activity in sera measured with TBBL; assay type: biochemical; settings: RR sera (n = 6); 0.25 mM TBBL; mean and S.D.
# T2 construct: The samples were collected from 54 healthy individuals at Rambam Medical Center; from tissue; host or cells: human serum from 54 healthy individuals
# Protocol: as §3
# [5] = target: purified human PON1 polymorphs (Homo sapiens, UniProt P27169); assay: Specific activity of purified human PON1 polymorphs for TBBL in absence of HDL; assay type: biochemical; settings: 0.25 mM TBBL, same for both polymorphs
# serum PON1 [6] = assay: Paraoxonase activity in sera; assay type: biochemical; settings: 54 human sera
# Protocol: as §1, §2
# [7] = 50 mM Tris pH 8.0, 1 mM substrate
# T2 sequence (P27169 2-355 Q192R): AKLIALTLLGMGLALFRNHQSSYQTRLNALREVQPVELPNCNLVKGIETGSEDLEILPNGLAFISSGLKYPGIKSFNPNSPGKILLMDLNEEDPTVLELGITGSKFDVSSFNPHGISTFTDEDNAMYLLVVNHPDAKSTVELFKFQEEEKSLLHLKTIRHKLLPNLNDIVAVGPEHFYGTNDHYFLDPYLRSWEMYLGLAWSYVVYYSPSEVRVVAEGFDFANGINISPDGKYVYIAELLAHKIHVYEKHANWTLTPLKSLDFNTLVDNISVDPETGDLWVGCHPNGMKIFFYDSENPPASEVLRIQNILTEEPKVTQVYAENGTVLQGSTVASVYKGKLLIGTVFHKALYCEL
# T1 sequence (P27169 2-355): as the sequence (P27169 2-355 Q192R) above, with R191Q counted along it
# Sequence of purified human PON1 polymorphs (P27169 2-355): as the sequence (P27169 2-355 Q192R) above, with R191Q counted along it
smiles,measurement,setting,value
CC(=O)Oc1ccccc1 [Phenyl acetate],Mean ± S.D. of activity,serum PON1 [1]; [7],48.2 ± 20.9 Units activity
same,Range of activity,serum PON1 [1]; [7],15.6-100.6 Units activity
same,"Variation of activity between sera (fold, in brackets under range)",serum PON1 [1],(6) fold
same,Stimulation upon HDL binding,PON1,ca. 2 fold
"CCCCSC1CCC(=O)O1 (centres unmarked) [TBBL, 5-thiobutyl butyrolactone]",Variation of TBBLase activity between sera,serum PON1 [2]; 54 human sera,7 fold
same,TBBL lactonase activity,"serum PON1 [2]; All sera (n = 54), μmol hydrolyzed per min per 1 ml undiluted serum",3.8 ± 1.9 Units/ml
same,TBBL lactonase activity,serum PON1 [2]; RQ sera (n = 14),4.1 ± 2.1 Units/ml
same,Mean lactonase activity in RR sera relative to QQ sera,serum PON1 [2]; RR vs QQ sera,1.5 fold
same,TBBL lactonase activity,serum PON1 [3],3.5 Units/ml and 3.5 ± 1.6 Units/ml
same,TBBL lactonase activity,serum PON1 [4],5.4 Units/ml and 5.4 ± 2.7 Units/ml
same,Specific activity for TBBL,[5],1.0±0.1 μmol/min/mg of protein
CCOP(=O)(OCC)Oc1ccc([N+](=O)[O-])cc1 [Paraoxon],Mean ± S.D. of activity,serum PON1 [6]; [7],49.5 ± 36.6 Units activity
same,Range of activity,serum PON1 [6]; [7],7.7-173.5 Units activity
same,"Variation of activity between sera (fold, in brackets under range)",serum PON1 [6],(23) fold

# Source: patent publication US20100099118A1, “METHODS OF DETERMINING TOTAL PON1 LEVEL” (priority 2007, published 2010)
